Reference: the NIST ThermoML archive (doi:10.1021/acs.jced.8b00132)
Several values for one entry are separate records, joined by “and”; a condition that tells them apart may be missing. Identical values can stand only once. ± gives the expanded uncertainty stated by the source.

O=C(C(F)(F)C(F)(F)F)C(F)(C(F)(F)F)C(F)(F)F [dodecafluoro-2-methylpentan-3-one]
Settings	thermal conductivity
359.78 K, 24942 kPa, Liquid, transient hot wire	0.06009 ± 0.0012 W/m/K
359.79 K, 91 kPa, Gas, transient hot wire	0.01762 ± 0.0011 W/m/K
359.79 K, 92 kPa, Gas, transient hot wire	0.01704 ± 0.001 W/m/K
359.83 K, 255 kPa, Gas, transient hot wire	0.01639 ± 0.001 W/m/K and 0.01638 ± 0.001 W/m/K
359.85 K, 7097 kPa, Liquid, transient hot wire	0.05177 ± 0.0011 W/m/K
359.85 K, 7099 kPa, Liquid, transient hot wire	0.05171 ± 0.0011 W/m/K
359.89 K, 18005 kPa, Liquid, transient hot wire	0.05715 ± 0.0012 W/m/K
359.9 K, 18006 kPa, Liquid, transient hot wire	0.05719 ± 0.0012 W/m/K
359.92 K, 186 kPa, Gas, transient hot wire	0.01654 ± 0.001 W/m/K and 0.01651 ± 0.001 W/m/K
359.92 K, 3418 kPa, Liquid, transient hot wire	0.04946 ± 0.001 W/m/K
359.93 K, 3420 kPa, Liquid, transient hot wire	0.04957 ± 0.001 W/m/K
359.99 K, 11963 kPa, Liquid, transient hot wire	0.05432 ± 0.0011 W/m/K
360 K, 26 kPa, Gas, transient hot wire	0.01679 ± 0.001 W/m/K
360.01 K, 26 kPa, Gas, transient hot wire	0.01682 ± 0.001 W/m/K
360.01 K, 11965 kPa, Liquid, transient hot wire	0.05404 ± 0.0011 W/m/K
360.03 K, 353 kPa, Liquid, transient hot wire	0.0473 ± 0.00099 W/m/K
360.04 K, 353 kPa, Liquid, transient hot wire	0.0473 ± 0.00099 W/m/K
360.05 K, 352 kPa, Liquid, transient hot wire	0.04729 ± 0.00099 W/m/K and 0.0475 ± 0.00099 W/m/K
360.09 K, 92 kPa, Gas, transient hot wire	0.01711 ± 0.0011 W/m/K and 0.01617 ± 0.001 W/m/K
360.11 K, 7096 kPa, Liquid, transient hot wire	0.05168 ± 0.0011 W/m/K
360.11 K, 7097 kPa, Liquid, transient hot wire	0.0517 ± 0.0011 W/m/K
360.19 K, 3417 kPa, Liquid, transient hot wire	0.04945 ± 0.001 W/m/K
360.19 K, 3421 kPa, Liquid, transient hot wire	0.04947 ± 0.001 W/m/K
360.32 K, 353 kPa, Liquid, transient hot wire	0.0473 ± 0.00099 W/m/K
360.33 K, 352 kPa, Liquid, transient hot wire	0.0473 ± 0.00099 W/m/K and 0.04729 ± 0.00099 W/m/K
360.33 K, 353 kPa, Liquid, transient hot wire	0.04728 ± 0.00098 W/m/K
360.34 K, 26 kPa, Gas, transient hot wire	0.01682 ± 0.001 W/m/K and 0.01675 ± 0.001 W/m/K
373.92 K, 307 kPa, Gas, hot wire	0.01816 ± 0.00086 W/m/K
373.92 K, 308 kPa, Gas, hot wire	0.01812 ± 0.00086 W/m/K
373.97 K, 206 kPa, Gas, hot wire	0.01727 ± 0.00081 W/m/K
373.97 K, 207 kPa, Gas, hot wire	0.0173 ± 0.00081 W/m/K
374 K, 102 kPa, Gas, hot wire	0.01713 ± 0.00081 W/m/K and 0.01722 ± 0.00081 W/m/K
374.03 K, 306 kPa, Gas, hot wire	0.01829 ± 0.00087 W/m/K and 0.01823 ± 0.00086 W/m/K
374.08 K, 25 kPa, Gas, hot wire	0.01652 ± 0.00078 W/m/K and 0.01647 ± 0.00078 W/m/K
374.1 K, 205 kPa, Gas, hot wire	0.01731 ± 0.00082 W/m/K
374.1 K, 206 kPa, Gas, hot wire	0.01733 ± 0.00082 W/m/K
374.14 K, 102 kPa, Gas, hot wire	0.01694 ± 0.0008 W/m/K and 0.01695 ± 0.0008 W/m/K
374.15 K, 305 kPa, Gas, hot wire	0.01837 ± 0.00087 W/m/K
374.17 K, 305 kPa, Gas, hot wire	0.01816 ± 0.00086 W/m/K
374.21 K, 25 kPa, Gas, hot wire	0.01648 ± 0.00078 W/m/K
374.22 K, 25 kPa, Gas, hot wire	0.01645 ± 0.00078 W/m/K
374.23 K, 205 kPa, Gas, hot wire	0.0174 ± 0.00082 W/m/K and 0.01741 ± 0.00082 W/m/K
374.28 K, 102 kPa, Gas, hot wire	0.01696 ± 0.0008 W/m/K
374.28 K, 304 kPa, Gas, hot wire	0.01841 ± 0.00087 W/m/K
374.28 K, 305 kPa, Gas, hot wire	0.01852 ± 0.00088 W/m/K
374.29 K, 102 kPa, Gas, hot wire	0.01693 ± 0.0008 W/m/K
374.35 K, 25 kPa, Gas, hot wire	0.01656 ± 0.00078 W/m/K and 0.01653 ± 0.00078 W/m/K
374.36 K, 203 kPa, Gas, hot wire	0.01755 ± 0.00083 W/m/K
374.37 K, 204 kPa, Gas, hot wire	0.01751 ± 0.00083 W/m/K
374.42 K, 102 kPa, Gas, hot wire	0.01695 ± 0.0008 W/m/K
374.42 K, 303 kPa, Gas, hot wire	0.01848 ± 0.00088 W/m/K and 0.01842 ± 0.00087 W/m/K
374.43 K, 102 kPa, Gas, hot wire	0.01693 ± 0.0008 W/m/K
374.49 K, 376 kPa, Gas, transient hot wire	0.01734 ± 0.0011 W/m/K
374.5 K, 25 kPa, Gas, hot wire	0.01656 ± 0.00078 W/m/K and 0.01659 ± 0.00078 W/m/K
374.5 K, 377 kPa, Gas, transient hot wire	0.01734 ± 0.0011 W/m/K
374.51 K, 202 kPa, Gas, hot wire	0.0176 ± 0.00083 W/m/K
374.51 K, 203 kPa, Gas, hot wire	0.01762 ± 0.00083 W/m/K
374.52 K, 308 kPa, Gas, transient hot wire	0.01738 ± 0.0011 W/m/K
374.53 K, 307 kPa, Gas, transient hot wire	0.01737 ± 0.0011 W/m/K
374.58 K, 101 kPa, Gas, hot wire	0.01698 ± 0.0008 W/m/K
374.59 K, 101 kPa, Gas, hot wire	0.01691 ± 0.0008 W/m/K
374.59 K, 207 kPa, Gas, transient hot wire	0.01758 ± 0.0011 W/m/K
374.6 K, 206 kPa, Gas, transient hot wire	0.01761 ± 0.0011 W/m/K
374.66 K, 25 kPa, Gas, hot wire	0.0166 ± 0.00078 W/m/K and 0.01657 ± 0.00078 W/m/K
374.69 K, 376 kPa, Gas, transient hot wire	0.01733 ± 0.0011 W/m/K
374.7 K, 376 kPa, Gas, transient hot wire	0.01734 ± 0.0011 W/m/K
374.74 K, 306 kPa, Gas, transient hot wire	0.01741 ± 0.0011 W/m/K
374.81 K, 206 kPa, Gas, transient hot wire	0.01763 ± 0.0011 W/m/K and 0.01767 ± 0.0011 W/m/K
374.92 K, 374 kPa, Gas, transient hot wire	0.01739 ± 0.0011 W/m/K
374.92 K, 375 kPa, Gas, transient hot wire	0.01742 ± 0.0011 W/m/K
374.97 K, 305 kPa, Gas, transient hot wire	0.0175 ± 0.0011 W/m/K
374.97 K, 306 kPa, Gas, transient hot wire	0.01752 ± 0.0011 W/m/K
375.05 K, 205 kPa, Gas, transient hot wire	0.01769 ± 0.0011 W/m/K
375.15 K, 373 kPa, Gas, transient hot wire	0.01743 ± 0.0011 W/m/K
375.15 K, 374 kPa, Gas, transient hot wire	0.01735 ± 0.0011 W/m/K
375.2 K, 304 kPa, Gas, transient hot wire	0.01738 ± 0.0011 W/m/K
375.21 K, 304 kPa, Gas, transient hot wire	0.01741 ± 0.0011 W/m/K
375.3 K, 204 kPa, Gas, transient hot wire	0.01791 ± 0.0011 W/m/K and 0.0176 ± 0.0011 W/m/K
375.4 K, 372 kPa, Gas, transient hot wire	0.01754 ± 0.0011 W/m/K
375.4 K, 373 kPa, Gas, transient hot wire	0.01755 ± 0.0011 W/m/K
375.47 K, 303 kPa, Gas, transient hot wire	0.01756 ± 0.0011 W/m/K
375.48 K, 303 kPa, Gas, transient hot wire	0.01757 ± 0.0011 W/m/K
375.57 K, 202 kPa, Gas, transient hot wire	0.01755 ± 0.0011 W/m/K
